Data set [1] addresses T1, IRAK4 (Homo sapiens, UniProt Q9NWZ3).
T1 construct: endogenous in cells; host or cells: OCI-LY10
T1 sequence (Q9NWZ3 1-460): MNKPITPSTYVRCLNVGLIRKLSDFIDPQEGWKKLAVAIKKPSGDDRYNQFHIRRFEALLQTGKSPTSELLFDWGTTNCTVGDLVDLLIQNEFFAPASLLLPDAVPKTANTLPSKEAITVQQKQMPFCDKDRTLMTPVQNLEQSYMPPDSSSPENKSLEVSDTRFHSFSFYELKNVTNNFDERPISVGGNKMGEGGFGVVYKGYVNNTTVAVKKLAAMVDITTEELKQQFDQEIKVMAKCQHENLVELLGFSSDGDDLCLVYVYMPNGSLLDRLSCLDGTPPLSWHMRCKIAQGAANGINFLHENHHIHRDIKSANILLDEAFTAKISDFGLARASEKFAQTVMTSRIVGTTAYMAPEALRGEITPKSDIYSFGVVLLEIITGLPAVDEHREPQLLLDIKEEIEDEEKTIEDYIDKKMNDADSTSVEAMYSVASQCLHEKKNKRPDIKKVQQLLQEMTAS
The data set is described as follows: IRAK4 MSD degradation in OCI-LY10. The following applies: OCI-LY10 cells, 24 hrs, Meso Scale Discovery. The data set is classed as cell-based. The gist of the method:
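OCI-LY10 cells treated 4 to 24 hours at 37° C. with 8-dose 1:3 series, top 1 to 10 μM. IRAK4 in lysates quantified by MSD sandwich immunoassay (mouse capture, rabbit detection, SULFO-TAG anti-rabbit). DC50 from three-parameter logistic fit.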

The nature of data set [2]: Rodent pharmacokinetics (rat PK). In kind it is in vivo. Particulars: po, dosed intravenously or orally by gavage, plasma, read-out: F % (bioavailability). The method, boiled down: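 Rats were dosed IV or by oral gavage, with jugular blood taken predose and at 5 min (IV only), 15, 30 min and 1, 2, 4, 8, 24 h. Plasma was separated by centrifugation at 4 °C. Oral bioavailability (F %) is coded A (≥5%) or B (≤5%).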

As for `COc1ccc2c(c1N1CC3(CCN(C[C@H]4CC[C@H](c5nc6cc(C(C)(C)O)c(NC(=O)c7cncc(C#N)c7)cc6s5)CC4)CC3(F)F)C1)n(C)c(=O)n2C1CCC(=O)NC1=O` (stereo partly shown) [I-412], in data set [1], the DC50 is 100 to 200 nM. Further, the bioavailability in data set [2] was not above 5%.

On to `Cn1c(=O)n(C2CCC(=O)NC2=O)c2cccc(C#CCOC[C@H]3CC[C@H](n4cc(NC(=O)c5cnn6ccc(N7C[C@H]8C[C@@H]7CO8)nc56)c(C(F)F)n4)CC3)c21` (stereo partly shown) [I-108], for which the DC50 in data set [1] is 10 to 100 nM. Besides, the bioavailability in data set [2] is not below 5%.

In turn, `Cn1nc(C2CCC(=O)NC2=O)c2cccc([C@@H]3CCN(C[C@H]4CC[C@H](n5cc6cc(NC(=O)c7cncc(C#N)c7)c(C(C)(C)O)cc6n5)CC4)CC3(F)F)c21` (single isomer, unassigned) [I-222] gave a DC50 in data set [1] of less than 10 nM. Further, the bioavailability in data set [2] was not below 5%.

Compound `COc1cc2nn([C@H]3CC[C@H](CN4CCC5(CCN(c6cccc7c6n(C)c(=O)n7C6CCC(=O)NC6=O)CC5)C(F)(F)C4)CC3)cc2cc1NC(=O)c1cncc(C)c1` (stereo partly shown) [I-257] returned a DC50 in data set [1] of less than 10 nM. Besides, the bioavailability in data set [2] is not above 5%.

Compound `Cn1c(=O)n(C2CCC(=O)NC2=O)c2cccc([C@@H]3CCN(C[C@H]4CC[C@H](n5cc6cc(NC(=O)c7cncc(C(C)(C)C)n7)ncc6n5)CC4)C[C@H]3F)c21` (stereo partly shown) [I-322] had a DC50 in data set [1] of less than 10 nM. In addition, the bioavailability in data set [2] was not above 5%.

On to `Cc1nn(C2CCC(=O)NC2=O)c2cccc(N3CCC4(CCN(C[C@H]5CC[C@H](n6cc7cc(NC(=O)c8cncc(C#N)c8)c(C(C)(C)O)cc7n6)CC5)CC4(F)F)CC3)c12` (stereo partly shown) [I-312], for which the DC50 in data set [1] was in the range of 10 to 100 nM. Moreover, the bioavailability in data set [2] was not above 5%.

`COc1cc2nc([C@H]3CC[C@H](CN4CC[C@@H](c5cccc6c5n(C)c(=O)n6C5CCC(=O)NC5=O)[C@H](F)C4)CC3)oc2cc1NC(=O)c1cncc(C(F)(F)F)n1` (stereo partly shown) [I-284] came in with a DC50 in data set [1] of 10 to 100 nM. The bioavailability in data set [2] is not above 5%.

For the compound `Cc1cc2nn([C@H]3CC[C@H](CN4CC[C@@H](c5cccc6c5n(C)c(=O)n6C5CCC(=O)NC5=O)[C@H](F)C4)CC3)cc2cc1NC(=O)c1cncc(C#N)c1` (stereo partly shown) [I-272], in data set [1], the DC50 was more than 200 nM. The bioavailability in data set [2] was not above 5%.

In turn, `CN(C[C@H]1CC[C@H](n2cc(NC(=O)c3cnn4ccc(N5C[C@H]6C[C@@H]5CO6)nc34)c(C(F)F)n2)CC1)[C@H]1CCN(c2cccc3c2n(C)c(=O)n3C2CCC(=O)NC2=O)C[C@H]1F` (single isomer, unassigned) [I-27] gave a DC50 in data set [1] of less than 10 nM. Also, the bioavailability in data set [2] was not above 5%.

Compound `COc1cc2nn([C@H]3CC[C@H](CN4CC[C@@H](c5cccc6c5n(C)c(=O)n6C5CCC(=O)NC5=O)[C@H](F)C4)CC3)cc2cc1C(=O)Nc1cccc(C(F)(F)F)c1` (stereo partly shown) [I-142] had a DC50 in data set [1] of less than 10 nM. The bioavailability in data set [2] was not below 5%.

Take `Cn1c(=O)n(C2CCC(=O)NC2=O)c2cccc([C@@H]3CCN(C[C@H]4CC[C@H](c5nc6cc(C(C)(C)O)c(NC(=O)c7cncc(C(F)(F)F)n7)cc6o5)CC4)C[C@H]3F)c21` (stereo partly shown) [I-288]: the DC50 in data set [1] was less than 10 nM. Also, the bioavailability in data set [2] is not below 5%.

Take `Cn1c(=O)n(C2CCC(=O)NC2=O)c2cccc(N3CC(COC[C@H]4CC[C@H](n5cc6cc(NC(=O)c7cccc(C(F)(F)F)c7)ncc6n5)CC4)C3)c21` (stereo partly shown) [I-269]: the DC50 in data set [1] was more than 200 nM. The bioavailability in data set [2] was not above 5%.

As to `Cc1cncc(C(=O)Nc2cc3cn([C@H]4CC[C@H](CN5CC[C@@H](c6cccc7c6n(C)c(=O)n7C6CCC(=O)NC6=O)[C@H](F)C5)CC4)nc3cn2)n1` (stereo partly shown) [I-310], the DC50 in data set [1] is less than 10 nM. In addition, in data set [2], the bioavailability is not above 5%.

As to `Cn1c(=O)n(C2CCC(=O)NC2=O)c2cccc([C@H]3CCN(C[C@H]4CC[C@H](n5cc6cc(NC(=O)c7cncc(C#N)c7)c(C(C)(C)O)cc6n5)CC4)CC3(F)F)c21` (single isomer, unassigned) [I-390], the DC50 in data set [1] was less than 10 nM. In data set [2], the bioavailability is not above 5%.

In data set [1], `Cn1c(=O)n(C2CCC(=O)NC2=O)c2cccc(N3CCC4(CCN(C[C@H]5CC[C@H](n6cc7cc(NC(=O)c8cncc(Cl)c8)c(C(C)(C)O)cc7n6)CC5)CC4(F)F)CC3)c21` (stereo partly shown) [I-387] had a half-maximal degradation concentration (DC50) of less than 10 nM. Besides, the bioavailability in data set [2] is not above 5%.

Consider `Cn1c(=O)n(C2CCC(=O)NC2=O)c2cccc([C@H]3CCN(C[C@H]4CC[C@H](n5cc6cc(NC(=O)c7cncc(C(F)(F)F)n7)ncc6n5)CC4)CC3(F)F)c21` (single isomer, unassigned) [I-205], for which the DC50 in data set [1] is less than 10 nM. The bioavailability in data set [2] was not above 5%.

Regarding `Cn1nc(N2CCC(=O)NC2=O)c2cccc(N3CCC4(CCN(C[C@H]5CC[C@H](n6cc7cc(NC(=O)c8cncc(C#N)c8)c(C(C)(C)O)cc7n6)CC5)CC4(F)F)CC3)c21` [I-404], the DC50 in data set [1] lay in the range of 10 to 100 nM. In addition, in data set [2], the bioavailability is not above 5%.

For `CN(C[C@H]1CC[C@H](c2nc3cc(C(C)(C)O)c(NC(=O)c4cncc(C(F)(F)F)c4)cc3s2)CC1)[C@@H]1CCN(c2cccc3c2n(C)c(=O)n3C2CCC(=O)NC2=O)C[C@@H]1F` (single isomer, unassigned) [I-161], the DC50 in data set [1] was less than 10 nM. Further, the bioavailability in data set [2] is not below 5%.

On to `Cn1c(=O)n(C2CCC(=O)NC2=O)c2cccc([C@@H]3CCN(C[C@H]4CC[C@H](n5cc6cc(NC(=O)c7cncc(C(F)(F)F)n7)c(S(C)(=O)=O)cc6n5)CC4)C[C@H]3F)c21` (stereo partly shown) [I-346], for which the DC50 in data set [1] is less than 10 nM. The bioavailability in data set [2] was not above 5%.

On to `Cn1c(=O)n(C2CCC(=O)NC2=O)c2cccc([C@@H]3CCN(C[C@H]4CC[C@H](n5cc6cc(NC(=O)c7nc(C(F)(F)F)cs7)ccc6n5)CC4)C[C@H]3F)c21` (stereo partly shown) [I-154], for which the DC50 in data set [1] is less than 10 nM. Moreover, the bioavailability in data set [2] was not above 5%.

Take `Cc1cncc(C(=O)Nc2cc3cn([C@H]4CC[C@H](CN5CCC6(CCN(c7cccc8c7n(C)c(=O)n8C7CCC(=O)NC7=O)CC6)C(F)(F)C5)CC4)nc3cc2C(C)(C)O)c1` (stereo partly shown) [I-361]: in data set [1], the DC50 is less than 10 nM. For the same compound, the bioavailability in data set [2] is not above 5%.

In the case of `Cn1c(=O)n(C2CCC(=O)NC2=O)c2cccc([C@@H]3CCN(C[C@H]4CC[C@H](n5cc6cc(NC(=O)c7cccc(C(F)(F)F)n7)c(N7CCN(C8CC8)CC7)cc6n5)CC4)C[C@H]3F)c21` (stereo partly shown) [I-107], in data set [1], the half-maximal degradation concentration (DC50) was 10 to 100 nM. Also, the bioavailability in data set [2] was not above 5%.

In data set [1], `Cn1c(=O)n(C2CCC(=O)NC2=O)c2cccc([C@H]3CCN(C[C@H]4CC[C@H](n5cc6cc(NC(=O)c7cncc(C(F)(F)F)n7)ccc6n5)CC4)CC3(F)F)c21` (single isomer, unassigned) [I-180] yielded a DC50 of less than 10 nM. Further, the bioavailability in data set [2] is not below 5%.

In data set [1], `CN(C[C@H]1CC[C@H](c2nc3cc(C(C)(C)O)c(NC(=O)c4cccc(C(F)(F)F)c4)cc3s2)CC1)[C@@H]1CCN(c2cccc3c2n(C)c(=O)n3C2CCC(=O)NC2=O)C[C@@H]1F` (single isomer, unassigned) [I-192] gave a DC50 of less than 10 nM. Moreover, the bioavailability in data set [2] was not below 5%.

Turning to `Cn1c(=O)n(C2CCC(=O)NC2=O)c2cccc(N3CCC(F)(CN4CCC(c5nc6cc(C(C)(C)O)c(NC(=O)c7cccc(C(F)(F)F)n7)cc6o5)CC4)CC3)c21` (stereo not shown) [I-197], in data set [1], the DC50 is more than 200 nM. Moreover, the bioavailability in data set [2] is not above 5%.

As for `Cn1c(=O)n(C2CCC(=O)NC2=O)c2ccc(F)c(N3CCC4(CCN(C[C@H]5CC[C@H](n6cc7cc(NC(=O)c8cncc(C#N)c8)c(C(C)(C)O)cc7n6)CC5)CC4(F)F)CC3)c21` (stereo partly shown) [I-393], the DC50 in data set [1] was less than 10 nM. For the same compound, the bioavailability in data set [2] was not above 5%.

(Values after US20250059164A1, “IRAK DEGRADERS AND USES THEREOF” (Kymera Therapeutics, Inc., priority 2023, published 2025).)
